Experimental data published in the NIST ThermoML archive (doi:10.1016/j.jct.2004.05.006).
Numbers after ± are expanded uncertainties.

Legend:
[1] = 298.15 K; 101.33 kPa; Liquid
[2] = excess molar enthalpy (molar enthalpy of mixing); xn = mol fraction of the nth substance listed; conditions: 298.15 K, 101.3 kPa, Liquid, Flow calorimetry

Molecule `CCCCCCCCCC` [decane] has a mass density [1] of 726.31 ± 0.81 kg/m3.

`CCCC(C)C` [2-methylpentane] showed a mass density [1] of 649.78 ± 0.94 kg/m3.

Molecule `COC(C)(C)C` [2-methoxy-2-methylpropane] has a mass density [1] of 735.69 ± 0.73 kg/m3.

In the case of `CCCCCCCCCCCC` [dodecane], the mass density [1] is reported as 745.38 ± 0.78 kg/m3.

Work on `CCCC(C)C` [2-methylpentane] + COC(C)(C)C yielded an excess molar enthalpy ([2]; x2 = 0.0532) of 0.00897 ± 0.000335 kcal/mol, an excess molar enthalpy ([2]; x2 = 0.1063) of 0.0214 ± 0.000454 kcal/mol and an excess molar enthalpy ([2]; x2 = 0.1589) of 0.0336 ± 0.000574 kcal/mol. The excess molar enthalpy ([2]; x2 = 0.2113) was 0.0437 ± 0.000669 kcal/mol, the excess molar enthalpy ([2]; x2 = 0.2633) was 0.0523 ± 0.000765 kcal/mol and the excess molar enthalpy ([2]; x2 = 0.315) was 0.0597 ± 0.000837 kcal/mol. It also gave an excess molar enthalpy ([2]; x2 = 0.3658) of 0.065 ± 0.000884 kcal/mol, an excess molar enthalpy ([2]; x2 = 0.4165) of 0.0691 ± 0.000932 kcal/mol and an excess molar enthalpy ([2]; x2 = 0.4667) of 0.0717 ± 0.000956 kcal/mol. For the same molecule, the excess molar enthalpy ([2]; x2 = 0.5174) was 0.0725 ± 0.000956 kcal/mol, the excess molar enthalpy ([2]; x2 = 0.5673) was 0.0711 ± 0.000956 kcal/mol and the excess molar enthalpy ([2]; x2 = 0.6165) was 0.0696 ± 0.000932 kcal/mol. It also gave an excess molar enthalpy ([2]; x2 = 0.6652) of 0.0659 ± 0.000908 kcal/mol, an excess molar enthalpy ([2]; x2 = 0.7143) of 0.0608 ± 0.000837 kcal/mol and an excess molar enthalpy ([2]; x2 = 0.7628) of 0.0542 ± 0.000789 kcal/mol. It also gave an excess molar enthalpy ([2]; x2 = 0.81) of 0.0462 ± 0.000693 kcal/mol, an excess molar enthalpy ([2]; x2 = 0.8548) of 0.0376 ± 0.000621 kcal/mol and an excess molar enthalpy ([2]; x2 = 0.906) of 0.0257 ± 0.000502 kcal/mol. It also gave an excess molar enthalpy ([2]; x2 = 0.9531) of 0.0136 ± 0.000382 kcal/mol.
